In PubChem BioAssay AID248 (DTP/NCI, 2004) one finds T/C data, which are given here for 27 compounds.

This test has as its system L1210 leukemia ip in BDF1 mice, survival T/C. The test is described as follows: NCI In Vivo Anticancer Drug Screen. Data for tumor model L1210 Leukemia (intraperitoneal) in B6D2F1 (BDF1) mice. The note with it: endpoint: mean survival time, higher = longer survival. In short, it runs like this: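 Value reflects the ratio of survival in compound-treated mice to survival in vehicle-treated controls, with both groups carrying the same transplanted tumor.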

[1] abbreviates: dose: 100.0 mg/kg/injection, schedule: Q04DX002 (ip), vehicle: Klucel (hydroxypropylcellulose) (HPC).
[2] abbreviates: dose: 200.0 mg/kg/injection, schedule: Q04DX002 (ip), vehicle: Klucel (hydroxypropylcellulose) (HPC).
[3] abbreviates: dose: 400.0 mg/kg/injection, schedule: Q04DX002 (ip), vehicle: Klucel (hydroxypropylcellulose) (HPC).
Where [4] appears, read: dose: 25.0 mg/kg/injection, schedule: Q04DX003 (ip), vehicle: saline.
Setting [5] is: dose: 50.0 mg/kg/injection, schedule: Q01DX009 (ip), vehicle: saline with Tween-80.
Where [6] appears, read: dose: 50.0 mg/kg/injection, schedule: Q04DX003 (ip), vehicle: saline.
[7] abbreviates: dose: 100.0 mg/kg/injection, schedule: Q04DX002 (ip), vehicle: saline with Tween-80.
Where [8] appears, read: dose: 200.0 mg/kg/injection, schedule: Q04DX002 (ip), vehicle: saline with Tween-80.
Where [9] appears, read: dose: 400.0 mg/kg/injection, schedule: Q04DX002 (ip), vehicle: saline with Tween-80.
Setting [10] is: dose: 100.0 mg/kg/injection, schedule: Q04DX003 (ip), vehicle: saline with Tween-80.
Setting [11] is: dose: 200.0 mg/kg/injection, schedule: Q04DX003 (ip), vehicle: saline with Tween-80.
Setting [12] is: dose: 400.0 mg/kg/injection, schedule: Q04DX003 (ip), vehicle: saline with Tween-80.
[13] abbreviates: dose: 100.0 mg/kg/injection, schedule: Q01DX009 (ip), vehicle: Klucel (hydroxypropylcellulose) (HPC).
The mark [14] stands for this setting: dose: 100.0 mg/kg/injection, schedule: Q04DX003 (ip), vehicle: Klucel (hydroxypropylcellulose) (HPC).
Where [15] appears, read: dose: 200.0 mg/kg/injection, schedule: Q01DX009 (ip), vehicle: Klucel (hydroxypropylcellulose) (HPC).
The mark [16] stands for this setting: dose: 200.0 mg/kg/injection, schedule: Q04DX003 (ip), vehicle: Klucel (hydroxypropylcellulose) (HPC).
Where [17] appears, read: dose: 400.0 mg/kg/injection, schedule: Q01DX009 (ip), vehicle: Klucel (hydroxypropylcellulose) (HPC).
[18] abbreviates: dose: 400.0 mg/kg/injection, schedule: Q04DX003 (ip), vehicle: Klucel (hydroxypropylcellulose) (HPC).
The mark [19] stands for this setting: dose: 50.0 mg/kg/injection, schedule: Q01DX009 (ip), vehicle: Klucel (hydroxypropylcellulose) (HPC).
[20] abbreviates: dose: 100.0 mg/kg/injection, schedule: Q01DX001 (ip), vehicle: saline.
Where [21] appears, read: dose: 200.0 mg/kg/injection, schedule: Q01DX001 (ip), vehicle: saline.
[22] abbreviates: dose: 400.0 mg/kg/injection, schedule: Q01DX001 (ip), vehicle: saline.

Values joined by “and” are separate entries in the source; they are usually repeats but may differ in a detail not shown here. Equal entries are not always repeated. Inconclusive results and toxic doses are left out.

Regarding `O=C1OCC/C1=C/OCCCCCCO/C=C1/CCOC1=O`, the T/C is 102 % of control under setting [1], 102 % of control under setting [2] and 91 % of control under setting [3].
As to `CC[n+]1ccc(Nc2ccc(/C=C/c3ccc4cc(Nc5cc[n+](CC)cc5)ccc4[n+]3CC)cc2)cc1`, the T/C is 112 % of control and 119 % of control and 120 % of control (dose: 2.5 mg/kg/injection, schedule: Q01DX009 (ip), vehicle: saline); 150 % of control (dose: 5.0 mg/kg/injection, schedule: Q01DX009 (ip), vehicle: saline); 182 % of control and 209 % of control (dose: 10.0 mg/kg/injection, schedule: Q01DX009 (ip), vehicle: saline); 100 % of control (dose: 12.5 mg/kg/injection, schedule: Q01DX001 (ip), vehicle: saline); 100 % of control (dose: 25.0 mg/kg/injection, schedule: Q01DX001 (ip), vehicle: saline); 112 % of control (dose: 50.0 mg/kg/injection, schedule: Q01DX001 (ip), vehicle: saline).
With `COc1ccc(CN2CC(C)N(N)C(C)C2)cc1` (stereo unspecified), the T/C (dose: 100.0 mg/kg/injection, schedule: Q01DX005 (ip), vehicle: saline) was 98 % of control.
Consider `CC(=O)Nc1nc(C=O)c(CCCCc2ccccc2)c(=O)[nH]1`, for which the T/C is 102 % of control (dose: 80.0 mg/kg/injection, schedule: Q01DX001 (ip), vehicle: Klucel (hydroxypropylcellulose) (HPC)); 107 % of control (dose: 160.0 mg/kg/injection, schedule: Q01DX001 (ip), vehicle: Klucel (hydroxypropylcellulose) (HPC)); 107 % of control (dose: 320.0 mg/kg/injection, schedule: Q01DX001 (ip), vehicle: Klucel (hydroxypropylcellulose) (HPC)).
As for `N#C/C(=C1/C(=O)c2ccccc2-c2c1cccc2[N+](=O)[O-])c1ccccc1`, the T/C is 92 % of control (dose: 75.0 mg/kg/injection, schedule: Q01DX001 (ip), vehicle: carboxymethylcellulose (CMC)); 94 % of control (dose: 150.0 mg/kg/injection, schedule: Q01DX001 (ip), vehicle: carboxymethylcellulose (CMC)); 97 % of control (dose: 300.0 mg/kg/injection, schedule: Q01DX001 (ip), vehicle: carboxymethylcellulose (CMC)).
Take `O=C(O)/C=C/C(=O)OCCBr`: the T/C is, setting by setting: under setting [4], 92 % of control; under setting [5], 100 % of control; under setting [6], 95 % of control; (dose: 100.0 mg/kg/injection, schedule: Q01DX009 (ip), vehicle: saline with Tween-80) 115 % of control; (dose: 100.0 mg/kg/injection, schedule: Q04DX003 (ip), vehicle: saline) 90 % of control; (dose: 200.0 mg/kg/injection, schedule: Q01DX009 (ip), vehicle: saline with Tween-80) 97 % of control.
As to `O=C(Cc1cccc2ccccc12)OCCOCCCl`, the T/C is, setting by setting: under setting [7], 101 % of control; under setting [8], 104 % of control; under setting [9], 117 % of control.
Turning to `COC(=O)NC1CC2C=CC1C1C=CC21` (stereo unspecified), the T/C was 92 % of control under setting [10], 91 % of control under setting [11] and 100 % of control under setting [12].
For `Nc1nc(N)nc(NC(=O)CNCc2ccccc2)n1`, the T/C was 101 % of control and 105 % of control under setting [10]; 97 % of control and 107 % of control under setting [11]; 97 % of control and 102 % of control under setting [12].
For `O=C(/C=C/c1ccccc1)NN1CCCCC1`, the T/C reads like this: under setting [13], 94 % of control; under setting [14], 100 % of control; under setting [15], 110 % of control; under setting [16], 98 % of control.
Consider `COc1c(NC(=O)CC(C)=O)cccc1[N+](=O)[O-]`, for which the T/C is 103 % of control under setting [13]; 92 % of control under setting [1]; 101 % of control under setting [15]; 92 % of control under setting [2]; 98 % of control under setting [17]; 101 % of control under setting [3].
Take `Cc1c(F)cccc1OCC(=O)O`: the T/C under setting [1] was 111 % of control, the T/C under setting [2] was 108 % of control and the T/C under setting [3] was 105 % of control.
Regarding `CP1(=O)CCC(Br)C1Br` (stereo unspecified), the T/C under setting [7] is 91 % of control, the T/C under setting [8] was 91 % of control and the T/C under setting [9] was 98 % of control.
As to `C1CN2CCOC2O1`, the T/C reads like this: (dose: 100.0 mg/kg/injection, schedule: Q01DX009 (ip), vehicle: saline) 101 % of control; (dose: 200.0 mg/kg/injection, schedule: Q01DX009 (ip), vehicle: saline) 108 % of control; (dose: 400.0 mg/kg/injection, schedule: Q01DX009 (ip), vehicle: saline) 100 % of control.
On to `COC(=O)c1cc(Cl)ccc1OCC(=O)Nc1ccc([N+](=O)[O-])cc1`, for which the T/C under setting [13] is 98 % of control; the T/C under setting [14] was 102 % of control; the T/C under setting [15] is 93 % of control; the T/C under setting [16] is 95 % of control; the T/C under setting [17] is 105 % of control; the T/C under setting [18] is 103 % of control.
With `CC(CCc1ccccc1)NN` (stereo unspecified), the T/C is 98 % of control (dose: 3.12 mg/kg/injection, schedule: Q01DX009 (ip), vehicle: saline with Tween-80); 96 % of control (dose: 6.25 mg/kg/injection, schedule: Q01DX009 (ip), vehicle: saline with Tween-80); 90 % of control (dose: 12.5 mg/kg/injection, schedule: Q01DX009 (ip), vehicle: saline with Tween-80); 96 % of control (dose: 25.0 mg/kg/injection, schedule: Q01DX009 (ip), vehicle: saline with Tween-80); 100 % of control under setting [4]; 91 % of control under setting [5]. Further, the T/C under setting [6] was 100 % of control.
Consider `FC(F)(F)c1cccc(NC(=S)SCc2ccc(Cl)cc2)c1`, for which the T/C reads like this: (dose: 15.0 mg/kg/injection, schedule: Q04DX003 (ip), vehicle: saline) 102 % of control; (dose: 30.0 mg/kg/injection, schedule: Q04DX003 (ip), vehicle: saline) 102 % of control; (dose: 60.0 mg/kg/injection, schedule: Q04DX003 (ip), vehicle: saline) 102 % of control; under setting [1], 87 % of control; under setting [2], 112 % of control.
As for `CCc1c(Nc2ccccc2Cl)nc(N)[nH]c1=O`, the T/C (dose: 100.0 mg/kg/injection, schedule: Q01DX Z (ip), vehicle: methylcellulose (MC)) is 95 % of control.
Take `COC1(OC)C2(Cl)CC(=O)C3CC(=O)C3C1(Cl)C(Cl)=C2Cl` (stereo unspecified): the T/C by setting is: under setting [19], 92 % of control; under setting [20], 100 % of control; under setting [13], 94 % of control; under setting [21], 94 % of control; under setting [15], 102 % of control; under setting [22], 101 % of control.
Consider `O=C(OCCl)c1ccc(Cl)cc1Cl`, for which the T/C under setting [10] was 87 % of control and the T/C under setting [12] was 88 % of control.
On to `CCC1(N)COC(c2ccccc2)OC1` (stereo unspecified), for which the T/C under setting [19] was 109 % of control and the T/C under setting [13] is 88 % of control.
As for `CC(=O)OCC1OC(n2cnc3c(Cl)nc(Cl)nc32)CC1OC(C)=O` (stereo unspecified), the T/C under setting [20] was 101 % of control, the T/C under setting [21] was 101 % of control and the T/C under setting [22] is 101 % of control.
On to `CCOP(=O)(OC(C)CC)OC(C)CC` (stereo unspecified), for which the T/C is 93 % of control (dose: 100.0 mg/kg/injection, schedule: Q04DX003 (ip), vehicle: carboxymethylcellulose (CMC)) and 87 % of control (dose: 200.0 mg/kg/injection, schedule: Q04DX003 (ip), vehicle: carboxymethylcellulose (CMC)).
On to `Cc1cc(Cl)ccc1NC(=O)Nc1cccc(F)c1`, for which the T/C is 88 % of control under setting [13], 90 % of control under setting [15] and 86 % of control under setting [17].
For the compound `O=C(O)CCC(=O)c1cc2ccccc2s1`, the T/C is, setting by setting: under setting [14], 92 % of control; under setting [16], 99 % of control; under setting [18], 99 % of control.
As to `Cc1ccc(Cl)c(NC(=O)Nc2ccccc2Cl)c1`, the T/C is 94 % of control and 90 % of control under setting [13]; 93 % of control under setting [15]; 88 % of control and 89 % of control under setting [17].
Turning to `O=Cc1occ(-c2ccccc2)c1-c1ccccc1`, the T/C runs as follows: under setting [14], 94 % of control; under setting [16], 97 % of control; under setting [18], 98 % of control.
